Laboratory results taken from paper PMC4180209 (Arteriosclerosis, thrombosis, and vascular biology, 2014).
Where two headings read alike, the source gives them in different places. Each block holds one molecule with its values, some of them ahead of it.

What was measured:
[1] = tested on: human ADP-induced platelet aggregation; details: cited from earlier work
αIIbβ3 [2] = target: T1, αIIbβ3 (Homo sapiens, UniProt P05106+P08514); details: cited from earlier work
hαIIb/mβ3 mice = assay: FeCl3 murine carotid artery thrombosis model; format: in vivo; details: for platelet counts: hαIIb/mβ3 mice
[3] = tested on: human ADP-induced platelet aggregation; assay: ADP-induced platelet aggregation in platelet-rich plasma; format: cell-based; details: read-out: IC50 ADP-induced platelet aggregation; 5 µM ADP; citrated platelet-rich plasma; n=8
αVβ3 = αVβ3 (Homo sapiens, UniProt P05106+P06756); assay: Adhesion of HEK293 cells expressing αVβ3 to vitronectin; format: cell-based; details: RUC-2 100 µM, RUC-4 300 µM
murine αIIbβ3 [4] = target: T2, murine αIIbβ3 (Mus musculus, UniProt O54890+Q9QUM0); assay: Reactivity with murine platelets / inhibition of murine αIIbβ3; format: cell-based
murine αIIbβ3 [5] = target: T2, murine αIIbβ3; details: 1 µM; cited from earlier work
[6] = tested on: platelets of mice expressing hαIIb/mβ3; assay: ADP-induced platelet aggregation after dosing of hαIIb/mβ3 mice; format: in vivo
platelet αIIbβ3 [7] = target: T3, platelet αIIbβ3 (Homo sapiens, UniProt P05106+P08514); assay: Priming platelet αIIbβ3 to bind fibrinogen; format: cell-based
platelet αIIbβ3 [8] = target: T3, platelet αIIbβ3; details: cited from earlier work
αIIbβ3 [9] = target: T1, αIIbβ3; assay: Binding of ligand-induced binding site mAb AP5 to washed platelets; format: cell-based; details: for induction of increased binding of mAb AP5 (LIBS epitope in β3 PSI domain): eptifibatide 10 µM, RUC-2 100 µM, RUC-4 100 µM
[10] = Plasma concentrations in hαIIb/mβ3 mice; format: in vivo; details: exception of an outlier value
αIIbβ3 [11] = target: T1, αIIbβ3; assay: Adhesion of HEK293 cells expressing αIIbβ3 to fibrinogen; format: cell-based; details: for inhibition of binding of cells expressing αIIbβ3 to fibrinogen: HEK293 cells, RUC-2 100 µM, RUC-4 300 µM; for Specificity for αIIbβ3 vs αVβ3: αIIbβ3 cells to fibrinogen vs αVβ3 cells to vitronectin
[12] = Solubility in aqueous buffer; format: physicochemical
[13] = cited from earlier work
hαIIb/mβ3 platelets = details: read-out: IC50 for hαIIb/mβ3 platelets; data not shown, n=3
[14] = Clinical evaluation and platelet counts in M. fascicularis
human platelets = format: in vivo, mice; details: RUC-4 IV 1.5 mg/kg; laser injury, cremasteric arterioles; intravital microscopy
[15] = tested on: ADP (20 µM)-induced platelet aggregation; assay: ADP-induced platelet aggregation after IM administration to M. fascicularis; format: in vivo
[16] = RUC-2 0.39 mg/kg IP, 20 µM ADP, hαIIb/mβ3 mice
[17] = RUC-4 1.2 mg/kg IM, 20 µM ADP, hαIIb/mβ3 mice
[18] = IM 1.9 and 3.85 mg/kg, non-human primates

T2 sequence (Q9QUM0 32-1033): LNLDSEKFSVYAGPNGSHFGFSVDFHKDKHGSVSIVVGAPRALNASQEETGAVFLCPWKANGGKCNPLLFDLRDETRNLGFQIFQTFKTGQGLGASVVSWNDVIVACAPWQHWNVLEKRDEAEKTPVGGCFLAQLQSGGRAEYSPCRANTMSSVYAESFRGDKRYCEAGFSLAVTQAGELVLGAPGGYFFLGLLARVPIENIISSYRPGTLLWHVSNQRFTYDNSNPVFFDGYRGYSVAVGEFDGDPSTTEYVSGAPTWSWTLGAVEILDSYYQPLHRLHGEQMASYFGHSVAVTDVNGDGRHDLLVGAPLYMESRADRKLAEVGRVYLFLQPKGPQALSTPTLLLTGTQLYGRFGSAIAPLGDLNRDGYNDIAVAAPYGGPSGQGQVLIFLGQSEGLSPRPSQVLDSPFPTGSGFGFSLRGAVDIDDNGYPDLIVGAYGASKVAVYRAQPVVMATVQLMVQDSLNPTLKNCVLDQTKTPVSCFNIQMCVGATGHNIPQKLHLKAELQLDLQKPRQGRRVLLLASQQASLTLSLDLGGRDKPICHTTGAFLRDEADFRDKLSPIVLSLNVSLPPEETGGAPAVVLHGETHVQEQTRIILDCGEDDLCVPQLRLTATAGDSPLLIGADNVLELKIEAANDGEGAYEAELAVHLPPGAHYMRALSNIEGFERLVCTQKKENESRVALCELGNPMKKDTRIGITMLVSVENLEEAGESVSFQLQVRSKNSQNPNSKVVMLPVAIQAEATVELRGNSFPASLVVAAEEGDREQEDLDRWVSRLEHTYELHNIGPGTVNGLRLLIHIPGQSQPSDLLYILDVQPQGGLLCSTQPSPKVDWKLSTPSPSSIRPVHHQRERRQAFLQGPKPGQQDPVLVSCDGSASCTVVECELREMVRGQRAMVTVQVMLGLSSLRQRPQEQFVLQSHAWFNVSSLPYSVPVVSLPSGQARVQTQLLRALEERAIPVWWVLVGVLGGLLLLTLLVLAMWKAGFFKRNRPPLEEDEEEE
T2 sequence (O54890 26-787): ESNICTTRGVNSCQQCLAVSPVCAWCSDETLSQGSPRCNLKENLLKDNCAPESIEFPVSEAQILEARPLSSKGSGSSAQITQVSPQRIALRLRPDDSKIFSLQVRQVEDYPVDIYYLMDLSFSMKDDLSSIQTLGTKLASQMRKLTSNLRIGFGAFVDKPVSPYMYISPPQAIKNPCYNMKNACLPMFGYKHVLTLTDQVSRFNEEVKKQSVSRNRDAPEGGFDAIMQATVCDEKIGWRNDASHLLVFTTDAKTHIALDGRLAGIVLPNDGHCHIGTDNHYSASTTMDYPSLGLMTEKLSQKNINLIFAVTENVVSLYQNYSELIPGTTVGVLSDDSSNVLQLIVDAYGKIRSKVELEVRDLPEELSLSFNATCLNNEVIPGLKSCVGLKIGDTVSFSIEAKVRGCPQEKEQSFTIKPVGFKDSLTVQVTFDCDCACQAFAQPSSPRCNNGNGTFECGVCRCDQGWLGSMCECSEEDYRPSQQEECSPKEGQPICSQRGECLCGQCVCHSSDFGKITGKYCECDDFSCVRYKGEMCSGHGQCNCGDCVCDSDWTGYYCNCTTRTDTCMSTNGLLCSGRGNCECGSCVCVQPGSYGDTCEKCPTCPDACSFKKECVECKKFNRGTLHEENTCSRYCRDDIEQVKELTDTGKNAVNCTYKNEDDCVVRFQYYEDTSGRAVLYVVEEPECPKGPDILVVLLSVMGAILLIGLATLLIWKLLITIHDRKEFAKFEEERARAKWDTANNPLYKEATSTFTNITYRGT
T3 sequence (P08514 32-887 limits assumed): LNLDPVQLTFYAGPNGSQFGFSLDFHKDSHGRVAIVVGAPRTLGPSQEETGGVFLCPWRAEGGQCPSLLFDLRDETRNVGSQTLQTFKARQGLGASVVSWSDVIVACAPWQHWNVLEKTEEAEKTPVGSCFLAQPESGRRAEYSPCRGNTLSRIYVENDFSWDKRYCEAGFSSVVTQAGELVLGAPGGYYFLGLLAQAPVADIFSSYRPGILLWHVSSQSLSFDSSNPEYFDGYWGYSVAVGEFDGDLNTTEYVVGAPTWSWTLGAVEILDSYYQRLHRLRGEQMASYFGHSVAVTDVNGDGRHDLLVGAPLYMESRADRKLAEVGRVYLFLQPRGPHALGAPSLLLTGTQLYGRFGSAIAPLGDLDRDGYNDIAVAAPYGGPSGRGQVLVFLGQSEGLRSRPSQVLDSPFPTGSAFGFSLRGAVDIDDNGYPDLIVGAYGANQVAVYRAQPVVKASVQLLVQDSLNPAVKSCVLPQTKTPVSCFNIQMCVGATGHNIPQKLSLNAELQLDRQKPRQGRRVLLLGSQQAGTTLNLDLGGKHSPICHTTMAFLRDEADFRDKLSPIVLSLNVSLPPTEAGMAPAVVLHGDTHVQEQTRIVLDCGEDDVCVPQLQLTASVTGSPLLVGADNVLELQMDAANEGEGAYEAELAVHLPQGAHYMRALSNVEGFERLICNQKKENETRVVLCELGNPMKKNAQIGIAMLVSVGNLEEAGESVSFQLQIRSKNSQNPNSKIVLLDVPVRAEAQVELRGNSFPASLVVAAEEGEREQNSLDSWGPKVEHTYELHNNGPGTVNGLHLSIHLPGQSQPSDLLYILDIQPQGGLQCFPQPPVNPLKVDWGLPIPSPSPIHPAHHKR
T3 sequence (P08514 891-1039 partner limits assumed): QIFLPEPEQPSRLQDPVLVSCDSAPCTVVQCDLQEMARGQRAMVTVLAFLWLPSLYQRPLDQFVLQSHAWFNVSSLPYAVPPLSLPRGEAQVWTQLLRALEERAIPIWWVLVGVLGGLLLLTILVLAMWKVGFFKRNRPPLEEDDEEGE
T3 sequence (P05106 27-788): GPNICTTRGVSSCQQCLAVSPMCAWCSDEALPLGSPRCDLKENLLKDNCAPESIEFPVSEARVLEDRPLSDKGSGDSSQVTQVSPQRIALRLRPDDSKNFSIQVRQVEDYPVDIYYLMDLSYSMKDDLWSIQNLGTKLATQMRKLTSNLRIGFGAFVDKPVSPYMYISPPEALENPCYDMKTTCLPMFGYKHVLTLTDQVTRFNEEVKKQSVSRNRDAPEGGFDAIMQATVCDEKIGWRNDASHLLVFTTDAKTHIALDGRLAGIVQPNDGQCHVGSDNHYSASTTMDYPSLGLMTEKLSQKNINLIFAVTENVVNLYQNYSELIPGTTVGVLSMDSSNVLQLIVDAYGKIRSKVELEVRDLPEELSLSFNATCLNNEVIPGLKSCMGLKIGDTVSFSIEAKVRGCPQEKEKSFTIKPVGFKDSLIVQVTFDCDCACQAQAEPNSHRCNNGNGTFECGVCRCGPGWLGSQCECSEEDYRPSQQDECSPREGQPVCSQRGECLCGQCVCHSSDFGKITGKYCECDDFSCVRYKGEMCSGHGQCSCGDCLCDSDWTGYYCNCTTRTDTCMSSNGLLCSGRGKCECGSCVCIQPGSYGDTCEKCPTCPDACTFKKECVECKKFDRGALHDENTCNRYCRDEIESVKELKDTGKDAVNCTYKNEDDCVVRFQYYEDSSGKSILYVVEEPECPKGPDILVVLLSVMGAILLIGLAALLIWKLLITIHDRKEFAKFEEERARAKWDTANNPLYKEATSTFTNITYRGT
T1 sequence (P08514 32-887 limits assumed): as the sequence (P08514 32-887 limits assumed) above
T1 sequence (P08514 891-1039 partner limits assumed): as the sequence (P08514 891-1039 partner limits assumed) above
T1 sequence (P05106 27-788): as the sequence (P05106 27-788) above
Chain of αVβ3 (P06756 31-889 limits assumed): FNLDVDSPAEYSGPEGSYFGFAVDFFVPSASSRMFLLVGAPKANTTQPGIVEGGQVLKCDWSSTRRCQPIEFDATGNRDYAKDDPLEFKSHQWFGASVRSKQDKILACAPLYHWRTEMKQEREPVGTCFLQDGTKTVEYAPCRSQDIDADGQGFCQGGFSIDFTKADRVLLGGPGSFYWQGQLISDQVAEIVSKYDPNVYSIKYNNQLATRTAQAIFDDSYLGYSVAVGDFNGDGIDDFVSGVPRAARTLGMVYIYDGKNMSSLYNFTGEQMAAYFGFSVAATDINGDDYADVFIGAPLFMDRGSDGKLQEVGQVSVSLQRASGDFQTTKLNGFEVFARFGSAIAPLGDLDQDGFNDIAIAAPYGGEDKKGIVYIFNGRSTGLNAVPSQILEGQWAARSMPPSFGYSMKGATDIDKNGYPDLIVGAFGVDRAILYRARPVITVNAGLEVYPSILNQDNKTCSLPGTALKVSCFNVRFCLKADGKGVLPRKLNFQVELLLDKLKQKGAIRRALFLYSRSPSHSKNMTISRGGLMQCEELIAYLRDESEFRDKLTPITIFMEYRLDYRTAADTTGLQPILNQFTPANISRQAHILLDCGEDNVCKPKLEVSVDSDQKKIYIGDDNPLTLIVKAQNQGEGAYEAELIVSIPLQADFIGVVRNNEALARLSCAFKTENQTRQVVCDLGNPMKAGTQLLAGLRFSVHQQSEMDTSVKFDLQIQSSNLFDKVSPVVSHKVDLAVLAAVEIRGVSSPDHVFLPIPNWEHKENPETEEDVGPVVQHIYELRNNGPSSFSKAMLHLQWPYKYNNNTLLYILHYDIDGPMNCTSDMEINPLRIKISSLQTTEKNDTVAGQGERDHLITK
Chain of αVβ3 (P06756 891-1048 partner limits assumed): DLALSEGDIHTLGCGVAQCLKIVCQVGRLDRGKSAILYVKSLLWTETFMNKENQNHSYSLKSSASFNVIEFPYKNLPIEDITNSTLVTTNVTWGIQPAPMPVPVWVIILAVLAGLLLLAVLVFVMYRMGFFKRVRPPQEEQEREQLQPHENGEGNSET
Chain of αVβ3 (P05106 27-788): as the sequence (P05106 27-788) above

- platelet counts (hαIIb/mβ3 mice; RUC-2 3.85 mg/kg IP): 677±132 × 10^3 platelets per µl
- IC50 [3]: 95 ± 20 nM
- inhibition of binding of cells expressing αVβ3 to vitronectin (αVβ3): inability to inhibit
- Reactivity with murine platelets (murine αIIbβ3 [4]): No
- Ability to prime αIIbβ3 to bind fibrinogen (platelet αIIbβ3 [7]): No
- Ability to Induce conformational changes in αIIbβ3 identifiable by LIBS mAb (αIIbβ3 [9]): No
- induction of increased binding of mAb AP5 (LIBS epitope in β3 PSI domain) (αIIbβ3 [9]): did not induce increased binding
- time to maximum plasma concentration ([10]; RUC-2 IP): 15 min
- Specificity for αIIbβ3 vs αVβ3 (αIIbβ3 [11]): Yes
- Solubility in aqueous buffer at pH 7.4 [12]: 0.068–0.092 mg/ml
Molecule: NCC(=O)Nc1cccc(-c2nn3c(=O)cc(N4CCNCC4)nc3s2)c1 [RUC-2]
- IC50 [1]: ~90 nM
- fold more potent than RUC-1 [1]: ~ 100 fold
- conformational changes in β3 detectable by a conformation-specific monoclonal antibody or by electron microscopy (αIIbβ3 [2]): nor did they induce conformational changes in β3
- mice protected from vaso-occlusion (hαIIb/mβ3 mice; RUC-2 3.85 mg/kg IP, 20% FeCl3 for 3 minutes, 20 minutes after dosing): 8/8
- inhibition of murine αIIbβ3 (murine αIIbβ3 [5]): does not inhibit
- time at which return of the aggregation response begins [6, 16]: 45 min
- time to complete inhibition of platelet aggregation [6, 16]: ≤ 15 min
- time to complete inhibition of platelet aggregation ([6]; RUC-2 3.85 mg/kg IP, 20 µM ADP, hαIIb/mβ3 mice): ≤ 15 min
- platelet aggregation at the 45 minute time point ([6]; RUC-2 3.85 mg/kg IP): complete inhibition of platelet aggregation in all animals
- priming of the receptor to bind the ligand fibrinogen (platelet αIIbβ3 [8]): neither RUC-1 nor RUC-2 primed the receptor
- inhibition of binding of cells expressing αIIbβ3 to fibrinogen (αIIbβ3 [11]): inhibiting the binding of cells expressing αIIbβ3 to fibrinogen

Molecule: CCc1nn2c(=O)cc(N3CCNCC3)nc2s1 [RUC-1]
- IC50 [1]: 13000 nM
- conformational changes in β3 detectable by a conformation-specific monoclonal antibody or by electron microscopy (αIIbβ3 [2]): nor did they induce conformational changes in β3
- priming of the receptor to bind the ligand fibrinogen (platelet αIIbβ3 [8]): neither RUC-1 nor RUC-2 primed the receptor

Molecule: CCCCS(=O)(=O)N[C@@H](Cc1ccc(OCCCCC2CCNCC2)cc1)C(=O)O [tirofiban, reference compound]
- priming of the receptor to bind the ligand fibrinogen (platelet αIIbβ3 [8]): unlike eptifibatide and tirofiban, neither RUC-1 nor RUC-2 primed the receptor

Molecule: NCC(=O)Nc1cncc(-c2nn3c(=O)cc(N4CCNCC4)nc3s2)c1 [RUC-4]
- fold more soluble than RUC-2 [13]: more than 500 fold
- mice developing occlusion during the experiment (hαIIb/mβ3 mice; RUC-4 1.2 mg/kg IM, 20% FeCl3 for 3 minutes, 20 minutes after dosing): 2/11
- platelet counts (hαIIb/mβ3 mice; RUC-4 1.2 mg/kg IM): 674±176 × 10^3 platelets per µl
- IC50 [3]: 57 ± 10 nM
- inhibition of binding of cells expressing αVβ3 to vitronectin (αVβ3): inability to inhibit
- Reactivity with murine platelets (murine αIIbβ3 [4]): No
- inhibition of murine αIIbβ3 (murine αIIbβ3 [4]; data not shown): shares this property
- time of complete inhibition of platelet aggregation [6, 17]: 5 min
- time of partial return of aggregation [6, 17]: 4 h
- platelet aggregation at the 45 minute time point ([6]; RUC-4 1.2 mg/kg IM): complete inhibition of platelet aggregation in all animals
- Ability to prime αIIbβ3 to bind fibrinogen (platelet αIIbβ3 [7]): No
- IC50 (hαIIb/mβ3 platelets): ~10 nM
- Ability to Induce conformational changes in αIIbβ3 identifiable by LIBS mAb (αIIbβ3 [9]): No
- induction of increased binding of mAb AP5 (LIBS epitope in β3 PSI domain) (αIIbβ3 [9]): did not induce increased binding
- bleeding observation ([14]; 3.85 mg/kg IM): Transient gum bleeding
- clinical evaluation (tolerability) ([14]; IM 3.86, 1.93 and 1.0 mg/kg): well tolerated
- platelet counts throughout the 24 hour period ([14]; IM 3.86, 1.93 and 1.0 mg/kg, 24 hour): remained stable
- decrease in thrombus formation (human platelets): > 80%
- time to maximum plasma concentration ([10]; RUC-4 IM): 5 min
- inhibition of binding of cells expressing αIIbβ3 to fibrinogen (αIIbβ3 [11]): inhibiting the binding of cells expressing αIIbβ3 to fibrinogen
- Specificity for αIIbβ3 vs αVβ3 (αIIbβ3 [11]): Yes
- time at which return toward normal aggregation is evident ([15]; 1.0 mg/kg IM, 20 µM ADP): 2 h
- inhibition of aggregation at 15 minutes ([15]; 1.0 mg/kg IM, 15 minutes): partial
- time at which aggregation response began to return to normal ([15]; 1.93 mg/kg IM, 20 µM ADP): ≤ 4.5 h
- time to complete inhibition of aggregation ([15]; 1.93 mg/kg IM, 20 µM ADP): ≤ 15 min
- time to complete inhibition of aggregation ([15]; 3.86 mg/kg IM, 20 µM ADP): ≤ 15 min
- dose-dependent return of platelet aggregation after [15, 18]: 4.5 to 24 h
- time to complete inhibition of platelet aggregation [15, 18]: ≤ 15 min
- fold more soluble than RUC-2 in aqueous buffer at neutral pH ([12]; neutral pH): more than 500 fold
- Solubility in aqueous buffer at pH 7.4 [12]: 60–80 mg/ml

Molecule: eptifibatide [reference compound]
- fold higher affinity for αIIbβ3 than RUC-4 as judged by IC50 for platelet aggregation [1]: more than 4 fold
- priming of the receptor to bind the ligand fibrinogen (platelet αIIbβ3 [8]): unlike eptifibatide and tirofiban, neither RUC-1 nor RUC-2 primed the receptor
